Data published in US20240132431A1, “METHOD FOR ALKYLATING ACIDIC FUNCTIONAL GROUP” (Chugai Seiyaku Kabushiki Kaisha, priority 2021, published 2024).

Molecular target: T1, Bcl-2 protein (Recombinant Human Bcl-2 Protein) (Homo sapiens, UniProt P10415)
T1 construct: purchased Novus NBP2-34889
Assay: Binding evaluation of mixture library compounds to Bcl-2 using AS-MS (affinity selection mass spectrometry)
Conditions: AS-MS on the mixture of 1200 library compounds, ASMS Ratio(%)=(A−C)/B×100; for ASMS ratio (%) n = 1: replicate n = 1; for ASMS ratio (%) n = 2: replicate n = 2
Method in brief: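 Pooled library of ~1200 compounds ([…] each, final) incubated with recombinant human Bcl-2 (20 μM final) in Tris-HCl pH 7.4, NaCl, Tween-20, DTT buffer, dark, 23° C., 1 h. Bound fraction recovered by SEC spin column, organic extraction, reversed-phase LC/MS. ASMS Ratio (%) = (A−C)/B×100 versus protein-free standard and SEC blank.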

T1 sequence (P10415 whole entry): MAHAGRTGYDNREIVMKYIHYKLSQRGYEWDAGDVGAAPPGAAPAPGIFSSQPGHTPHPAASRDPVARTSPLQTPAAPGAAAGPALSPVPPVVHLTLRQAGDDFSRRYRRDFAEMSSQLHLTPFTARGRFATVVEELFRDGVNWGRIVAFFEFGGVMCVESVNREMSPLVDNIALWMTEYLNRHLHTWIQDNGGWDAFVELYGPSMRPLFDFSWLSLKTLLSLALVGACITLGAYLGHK

| Structure (SMILES) | ASMS ratio (%) n = 1 [%] | ASMS ratio (%) n = 2 [%] |
| --- | --- | --- |
| CCOc1cncc(-c2cc(C(=O)N3CCN(c4ccc(C(=O)N(C)CC56CC7CC(CC(C7)C5)C6)nn4)CC3)cc(C(C)(C)C)c2)c1 [B3A016-01, N-(1-Adamantylmethyl)-6-[4-[3-tert-butyl-5-(5-ethoxypyridin-3-yl)benzoyl]piperazin-1-yl]-N-methylpyridazine-3-carboxamide] | 2.8 | 0.1 |
| CCOc1cccc(-c2cc(C(=O)N3CCN(c4ccc(C(=O)N(C)CC56CC7CC(CC(C7)C5)C6)nn4)CC3)cc(C(F)(F)F)c2)c1 [B3A017-01, N-(1-Adamantylmethyl)-6-[4-[3-(3-ethoxyphenyl)-5-(trifluoromethyl)benzoyl]piperazin-1-yl]-N-methylpyridazine-3-carboxamide] | 6.9 | −6.3 |
| CCOc1cncc(-c2cc(C(=O)N3CCN(c4ccc(C(=O)N(C)CC56CC7CC(CC(C7)C5)C6)nn4)CC3)cc(C(F)(F)F)c2)c1 [B3A018-01, N-(1-Adamantylmethyl)-6-[4-[3-(5-ethoxypyridin-3-yl)-5-(trifluoromethyl)benzoyl]piperazin-1-yl]-N-methylpyridazine-3-carboxamide] | 5.0 | 1.8 |
| CCOc1cccc(-c2cnn(-c3cc(C(=O)N4CCN(c5ccc(C(=O)N(C)CC67CC8CC(CC(C8)C6)C7)nn5)CC4)cc(C(F)(F)F)c3)c2)c1 [B3A021-01, N-(1-Adamantylmethyl)-6-[4-[3-[4-(3-ethoxyphenyl)pyrazol-1-yl]-5-(trifluoromethyl)benzoyl]piperazin-1-yl]-N-methylpyridazine-3-carboxamide] | 12.5 | −8.4 |
| CCOc1cncc(-c2cnn(-c3cc(C(=O)N4CCN(c5ccc(C(=O)N(C)CC67CC8CC(CC(C8)C6)C7)nn5)CC4)cc(C(F)(F)F)c3)c2)c1 [B3A022-01, N-(1-Adamantylmethyl)-6-[4-[3-[4-(5-ethoxypyridin-3-yl)pyrazol-1-yl]-5-(trifluoromethyl)benzoyl]piperazin-1-yl]-N-methylpyridazine-3-carboxamide] | 4.9 | 7.2 |
| CCOc1cccc(-c2csc(C(=O)N3CCN(c4ccc(C(=O)N(C)CC56CC7CC(CC(C7)C5)C6)cc4)CC3)c2)c1 [B3A023-01, N-(1-Adamantylmethyl)-4-[4-[4-(3-ethoxyphenyl)thiophene-2-carbonyl]piperazin-1-yl]-N-methylbenzamide] | 2.4 | 1.7 |
| CCOc1cncc(-c2csc(C(=O)N3CCN(c4ccc(C(=O)N(C)CC56CC7CC(CC(C7)C5)C6)cc4)CC3)c2)c1 [B3A024-01, N-(1-Adamantylmethyl)-4-[4-[4-(5-ethoxypyridin-3-yl)thiophene-2-carbonyl]piperazin-1-yl]-N-methylbenzamide] | 1.6 | −0.4 |
| CCOc1cccc(-c2ccc(C(=O)N3CCN(c4ccc(C(=O)N(C)CC56CC7CC(CC(C7)C5)C6)cc4)CC3)cc2C)c1 [B3A025-01, N-(1-Adamantylmethyl)-4-[4-[4-(3-ethoxyphenyl)-3-methylbenzoyl]piperazin-1-yl]-N-methylbenzamide] | 15.7 | −19.6 |
| CCOc1cncc(-c2ccc(C(=O)N3CCN(c4ccc(C(=O)N(C)CC56CC7CC(CC(C7)C5)C6)cc4)CC3)cc2C)c1 [B3A026-01, N-(1-Adamantylmethyl)-4-[4-[4-(5-ethoxypyridin-3-yl)-3-methylbenzoyl]piperazin-1-yl]-N-methylbenzamide] | 4.4 | 0.6 |
| CCOc1cccc(-c2ccc(C(=O)N3CCN(c4ccc(C(=O)N(C)CC56CC7CC(CC(C7)C5)C6)cc4)CC3)cc2F)c1 [B3A027-01, N-(1-Adamantylmethyl)-4-[4-[4-(3-ethoxyphenyl)-3-fluorobenzoyl]piperazin-1-yl]-N-methylbenzamide] | −0.7 | −1.6 |
